{
  "source": "patent US12207654B2",
  "about": "“Bactericidal agent for agricultural or horticultural use, plant disease control method, and product for plant disease control use” (Kureha Corporation, priority 2019, dated 2025)",
  "key": {"Fusarium graminearum": {"tested_on": "Fusarium graminearum", "experiment": "microbe, parasite or virus in culture", "assay_type": "cell-based"}, "Pyrenophora graminea": {"tested_on": "Pyrenophora graminea", "experiment": "In vitro antimicrobial activity test on PDA plate media (colony diameter)", "assay_type": "cell-based", "settings": "used alone"}, "Gaeumannomyces graminis": {"tested_on": "Gaeumannomyces graminis", "experiment": "In vitro antimicrobial activity test on PDA plate media (colony diameter)", "assay_type": "cell-based", "settings": "used alone"}, "Fusarium fujikuroi": {"tested_on": "Fusarium fujikuroi", "experiment": "In vitro antimicrobial activity test on PDA plate media (colony diameter)", "assay_type": "cell-based", "settings": "used alone"}, "Glomerella cingulata": {"tested_on": "Glomerella cingulata", "experiment": "In vitro antimicrobial activity test on PDA plate media (colony diameter)", "assay_type": "cell-based"}, "Penicillium italicum": {"tested_on": "Penicillium italicum", "experiment": "In vitro antimicrobial activity test on PDA plate media (colony diameter)", "assay_type": "cell-based", "settings": "Penicillium italicum; single chemical at 0.13 ppm"}, "Microdocum nivale": {"tested_on": "Microdocum nivale", "experiment": "In vitro antimicrobial activity test on PDA plate media (colony diameter)", "assay_type": "cell-based", "settings": "used alone"}, "Cercospora beticola": {"tested_on": "Cercospora beticola", "experiment": "In vitro antimicrobial activity test in 96-well microplate (absorbance at 620 nm)", "assay_type": "cell-based", "settings": "used alone"}, "[1]": {"tested_on": "Colletotrichum lindemuthianum", "experiment": "In vitro antimicrobial activity test in 96-well microplate (absorbance at 620 nm)", "assay_type": "cell-based", "settings": "used alone"}, "Pyrenophola teres": {"tested_on": "Pyrenophola teres", "experiment": "In vitro antimicrobial activity test on PDA plate media (colony diameter)", "settings": "read-out: Actual fungal growth inhibition rate (%)", "source_text": "Apart from this, Pyrenophola teres pre-cultivated on chemical-free plate media was punched out with a 4-mm diameter cork borer and inoculated on chemical-containing PDA plate media.\nIn the above formula, R represents the fungal growth inhibition rate (%), dc represents the colony diameter on the chemical-free plate, and dt represents the colony diameter on the chemical-containing plate. […] Inhibition rate when mixed for use(theoretical value)=α+((100−α)×β/100\nIn the above formula, α and β represent the inhibition rate when each compound is used alone."}, "[2]": {"tested_on": "wheat leaf rust (Puccinia recondita)", "experiment": "Controlling effect test against wheat leaf rust (foliar spray on potted wheat seedlings)", "assay_type": "in vivo", "settings": "sprayed alone"}, "[3]": {"tested_on": "Alternaria alternata apple pathotype", "experiment": "In vitro antimicrobial activity test on PDA plate media (colony diameter)", "assay_type": "cell-based", "settings": "used alone"}},
  "note": "Values joined by “and” are separate entries in the source; they are usually repeats but may differ in a detail not shown here. Equal entries are not always repeated.",
  "data": [
    {"smiles": "COC(=O)C(O)(Cn1cncn1)c1ccc(Oc2ccc(Cl)cc2)cc1Br", "note": "(stereo not drawn) [Azole derivative I-228]", "values": [
      {"measurement": "Actual fungal growth inhibition rate (%)", "setting": "Fusarium graminearum", "value": 39, "unit": "%"},
      {"measurement": "Actual fungal growth inhibition rate (%)", "setting": "Pyrenophora graminea; 0.50 ppm", "value": 84, "unit": "%"},
      {"measurement": "Actual fungal growth inhibition rate (%)", "setting": "Gaeumannomyces graminis; 0.13 ppm", "value": 89, "unit": "%"},
      {"measurement": "Actual fungal growth inhibition rate (%)", "setting": "Gaeumannomyces graminis; 0.31 ppm", "value": 63, "unit": "%"},
      {"measurement": "Actual fungal growth inhibition rate (%)", "setting": "Gaeumannomyces graminis; 1.25 ppm", "value": 67, "unit": "%"},
      {"measurement": "Actual fungal growth inhibition rate (%)", "setting": "Gaeumannomyces graminis; 5.00 ppm", "value": 71, "unit": "%"},
      {"measurement": "Actual fungal growth inhibition rate (%)", "setting": "Fusarium fujikuroi; 0.50 ppm", "value": 21, "unit": "%"},
      {"measurement": "Actual fungal growth inhibition rate (%)", "setting": "Glomerella cingulata; Glomerella cingulata, single chemical at 0.01 ppm", "value": 0, "unit": "%"},
      {"measurement": "Actual fungal growth inhibition rate (%)", "setting": "Glomerella cingulata; Glomerella cingulata, single chemical at 0.03 ppm", "value": 16, "unit": "%"},
      {"measurement": "Actual fungal growth inhibition rate (%)", "setting": "Glomerella cingulata; used alone, 0.01 ppm", "value": 2, "unit": "%"},
      {"measurement": "Actual fungal growth inhibition rate (%)", "setting": "Glomerella cingulata; used alone, 0.03 ppm", "value": 12, "unit": "%"},
      {"measurement": "Actual fungal growth inhibition rate (%)", "setting": "Glomerella cingulata; used alone, 0.50 ppm", "value": 82, "unit": "%"},
      {"measurement": "Actual fungal growth inhibition rate (%)", "setting": "Penicillium italicum", "value": 56, "unit": "%"},
      {"measurement": "Actual fungal growth inhibition rate (%)", "setting": "Microdocum nivale; 1.25 ppm", "value": 56, "unit": "%"},
      {"measurement": "Actual fungal growth inhibition rate (%)", "setting": "Microdocum nivale; 5.00 ppm", "value": 86, "unit": "%"}
    ]},
    {"smiles": "Cc1cccc(-n2nnn(C)c2=O)c1COc1ccn(-c2ccc(Cl)cc2)n1", "note": "[Metyltetraprole, metyltetraprole]", "values": [
      {"measurement": "Actual fungal growth inhibition rate (%)", "setting": "Pyrenophora graminea; 0.001 ppm", "value": 0, "unit": "%"},
      {"measurement": "Actual growth inhibition rate", "setting": "Cercospora beticola; 0.08 ppm", "value": 72, "unit": "%"},
      {"measurement": "Actual growth inhibition rate", "setting": "[1]; 0.08 ppm", "value": 6, "unit": "%"},
      {"measurement": "Actual growth inhibition rate", "setting": "[1]; 0.4 ppm", "value": 73, "unit": "%"},
      {"measurement": "Actual growth inhibition rate", "setting": "[1]; 2.0 ppm", "value": 91, "unit": "%"}
    ]},
    {"smiles": "COC(=O)Nc1nc2ccccc2[nH]1", "note": "[Carbendazim, carbendazim]", "values": [
      {"measurement": "inhibition at 0.625 ppm", "setting": "Pyrenophola teres", "value": 0, "unit": "%"},
      {"measurement": "inhibition at 2.5 ppm", "setting": "Pyrenophola teres", "value": 6, "unit": "%"},
      {"measurement": "inhibition at 10 ppm", "setting": "Pyrenophola teres", "value": 13, "unit": "%"},
      {"measurement": "inhibition at 40 ppm", "setting": "Pyrenophola teres", "value": 14, "unit": "%"}
    ]},
    {"smiles": "COC(=O)C(O)(Cn1cncn1)c1ccc(Oc2ccc(Cl)cc2)cc1Cl", "note": "(stereo not drawn) [Azole derivative I-1, methyl 2-hydroxy-2-(2-chloro-4-(4-chlorophenoxy)phenyl)-3-(1H-1,2,4-triazole-1-yl)propanoate]", "values": [
      {"measurement": "Actual controlling rate", "setting": "[2]; 0.63 g/ha", "value": "16% and 11%"},
      {"measurement": "Actual controlling rate", "setting": "[2]; 1.25 g/ha", "value": "40% and 67%"},
      {"measurement": "Actual controlling rate", "setting": "[2]; 2.5 g/ha", "value": "83% and 98%"},
      {"measurement": "inhibition at 0.25 ppm", "setting": "Fusarium graminearum; Fusarium graminearum, read-out: Actual fungal growth inhibition rate (%)", "value": 0, "unit": "%"},
      {"measurement": "inhibition at 0.01 ppm", "setting": "Pyrenophora graminea; Pyrenophora graminea, 0.01 ppm, read-out: Actual fungal growth inhibition rate (%)", "value": 37, "unit": "%"},
      {"measurement": "inhibition at 0.03 ppm", "setting": "Pyrenophora graminea; Pyrenophora graminea, 0.03 ppm, read-out: Actual fungal growth inhibition rate (%)", "value": 71, "unit": "%"},
      {"measurement": "inhibition at 0.5 ppm", "setting": "Pyrenophora graminea; Pyrenophora graminea, 0.50 ppm, read-out: Actual fungal growth inhibition rate (%)", "value": 94, "unit": "%"},
      {"measurement": "Actual fungal growth inhibition rate (%)", "setting": "Pyrenophora graminea; 0.03 ppm", "value": "70% and 68%"},
      {"measurement": "Actual fungal growth inhibition rate (%)", "setting": "Pyrenophora graminea; 0.13 ppm", "value": "81% and 80% and 57% and 82%"},
      {"measurement": "Actual fungal growth inhibition rate (%)", "setting": "Pyrenophora graminea; 0.50 ppm", "value": "95% and 93%"},
      {"measurement": "inhibition at 0.03 ppm", "setting": "Gaeumannomyces graminis; Gaeumannomyces graminis, 0.03 ppm, read-out: Actual fungal growth inhibition rate (%)", "value": 31, "unit": "%"},
      {"measurement": "inhibition at 0.13 ppm", "setting": "Gaeumannomyces graminis; Gaeumannomyces graminis, 0.13 ppm, read-out: Actual fungal growth inhibition rate (%)", "value": 94, "unit": "%"},
      {"measurement": "Actual fungal growth inhibition rate (%)", "setting": "Gaeumannomyces graminis; 0.03 ppm", "value": 28, "unit": "%"},
      {"measurement": "Actual fungal growth inhibition rate (%)", "setting": "Gaeumannomyces graminis; 0.13 ppm", "value": 93, "unit": "%"},
      {"measurement": "inhibition at 0.01 ppm", "setting": "[3]; Alternaria alternata, 0.01 ppm, read-out: Actual fungal growth inhibition rate (%)", "value": 0, "unit": "%"},
      {"measurement": "inhibition at 0.03 ppm", "setting": "[3]; Alternaria alternata, 0.03 ppm, read-out: Actual fungal growth inhibition rate (%)", "value": 0, "unit": "%"},
      {"measurement": "Actual fungal growth inhibition rate (%)", "setting": "[3]; 0.13 ppm", "value": 1, "unit": "%"},
      {"measurement": "inhibition at 0.01 ppm", "setting": "Fusarium fujikuroi; Fusarium fujikuroi, 0.01 ppm, read-out: Actual fungal growth inhibition rate (%)", "value": 0, "unit": "%"},
      {"measurement": "inhibition at 0.03 ppm", "setting": "Fusarium fujikuroi; Fusarium fujikuroi, 0.03 ppm, read-out: Actual fungal growth inhibition rate (%)", "value": 4, "unit": "%"},
      {"measurement": "inhibition at 0.5 ppm", "setting": "Fusarium fujikuroi; Fusarium fujikuroi, 0.50 ppm, read-out: Actual fungal growth inhibition rate (%)", "value": 59, "unit": "%"},
      {"measurement": "inhibition at 0.01 ppm", "setting": "Glomerella cingulata; Colletotrichum gloeosporioides, used alone, 0.01 ppm, read-out: Actual fungal growth inhibition rate (%)", "value": 0, "unit": "%"},
      {"measurement": "inhibition at 0.03 ppm", "setting": "Glomerella cingulata; Colletotrichum gloeosporioides, used alone, 0.03 ppm, read-out: Actual fungal growth inhibition rate (%)", "value": 9, "unit": "%"},
      {"measurement": "inhibition at 0.13 ppm", "setting": "Glomerella cingulata; Colletotrichum gloeosporioides, used alone, 0.13 ppm, read-out: Actual fungal growth inhibition rate (%)", "value": 49, "unit": "%"},
      {"measurement": "inhibition at 0.5 ppm", "setting": "Glomerella cingulata; Colletotrichum gloeosporioides, used alone, 0.50 ppm, read-out: Actual fungal growth inhibition rate (%)", "value": 77, "unit": "%"},
      {"measurement": "Actual fungal growth inhibition rate (%)", "setting": "Glomerella cingulata; used alone, 0.50 ppm", "value": 75, "unit": "%"},
      {"measurement": "inhibition at 0.02 ppm", "setting": "Cercospora beticola; Cercospora beticola, 0.02 ppm, read-out: Actual growth inhibition rate", "value": 0, "unit": "%"},
      {"measurement": "inhibition at 0.5 ppm", "setting": "Cercospora beticola; Cercospora beticola, 0.5 ppm, read-out: Actual growth inhibition rate", "value": 6, "unit": "%"},
      {"measurement": "inhibition at 2.5 ppm", "setting": "Cercospora beticola; Cercospora beticola, 2.5 ppm, read-out: Actual growth inhibition rate", "value": 99, "unit": "%"},
      {"measurement": "inhibition at 0.1 ppm", "setting": "[1]; Colletotrichum lindemuthianum, 0.10 ppm, read-out: Actual growth inhibition rate", "value": 0, "unit": "%"},
      {"measurement": "inhibition at 0.25 ppm", "setting": "Pyrenophola teres", "value": 48, "unit": "%"}
    ]}
  ]
}
